For assay [1], the system named is Smad2/Smad3 phosphorylation. The experiment in a line: Phospho-Smad2/3 Inhibition Assay (western blot), Panc-1. It is filed as cell-based, human. As to conditions: at 10 μM, Panc-1 pancreatic cancer cell line; starred symbols = activation. As for the experimental part:
Protocol for Phospho-Smad2/3 Inhibition Assay
This assay is referred to as the “Phospho-Smad2/3 Inhibition Assay” throughout this application.
Cell lines: Human tumor-derived pancreatic cancer cell line Panc-1 (expressing KRas G12D mutant) and mouse muscle myoblast C2C12 were purchased from American Type Culture Collection and grown in complete DMEM-High Glucose, supplemented with penicillin (100 U/mL), streptomycin (100 μg/mL), and 10% heat-inactivated FBS at 37° C. in a humidified incubator with 5% CO2.
Method: Cells were plated at 350000 cells/well density in a 12-well plate, allowed 3 hours to adhere to the plate, then starved in the appropriate medium in the presence of 0.5% FBS overnight. The small molecules to be tested were added to the cells in the final concentration of 10 μM in the presence of 0.3% DMSO for 3 hours incubation at 37° C. For IC50 value determination, serial dilutions of compounds were added to cells under the same conditions. Next, Panc-1 cells were stimulated with 10 ng/ml TGF-b1 for 1 hour, and C2C12 cells were stimulated with 10 ng/ml TGF-b1 for 20 minutes (recombinant human TGF-b1, R&D Systems). After stimulation cells were lysed with lysis buffer containing 1% Triton X-100, EDTA, and Halt™ Protease & Phosphatase Inhibitor Cocktail (Thermo Scientific). Protein concentration was assessed by BCA protein assay (Thermo Scientific). Phosphorylation level of Smad2/Smad3 was determined by western blot.
Western blot protocol: Equal amounts of protein (15-50 μg) were separated by SDS-PAGE and transferred to nitrocellulose membranes (Invitrogen by Thermo Fisher Scientific). The membrane was stained with Ponceau S Stain (Boston BioProducts) to verify uniform protein loading. Membranes were blocked with 10% milk and phosphorylation levels of Smad2/Smad3 were assessed by incubating overnight at 4° C. with the following antibodies: Phospho-Smad2 (Ser465/467) and Phosph-Smad3 (Ser423/425), both from Cell Signaling Technology. Then the membranes were incubated with HRP-conjugated secondary antibody (Jackson Immunoresearch, West Grove, PA). Bands were incubated in Amersham ECL Prime Western Blotting Detection Reagent (GE Healthcare) and visualized using the ChemiDoc MP imaging system (Bio-Rad).

The subject of assay [2] is MiaPaca-2 (expressing KRAS G12C mutant). The assay can be described thus: Proliferation Assay (Cell Viability Assay). It is filed as cell-based. To be noted: Homo sapiens, MIA PaCa-2. On the procedure:
Protocol for Proliferation Assay
This assay is referred to as the “Proliferation Assay” or “Cell Viability Assay” throughout this application.
Cell lines: Human tumor-derived cell lines were purchased from American Type Culture Collection. Human tumor-derived pancreatic cancer cell line MiaPaca-2 (expressing KRAS G12C mutant) and Panc-1 (expressing KRas G12D mutant), and Human non-small cell lung cancer (NSCLC) cell line A549 (expressing KRas G12S mutant) were grown in complete DMEM-High Glucose medium. Human colon cancer cell line SW-620 (expressing KRas G12V mutant) was grown in RPMI 1640 medium. All cell lines were supplemented with penicillin (100 U/mL), streptomycin (100 μg/mL), and 10% heat-inactivated FBS at 37° C. in a humidified incubator with 5% CO2.
Method: Cells were plated at 2000 to 5000 cells/well density in 96-wells plate and cultured overnight. Small molecules to be tested were added to the cells in the final concentration of 10 μM in the presence of 0.3% DMSO and 10% FBS and incubated for 2-4 days at 37° C. in a humidified incubator with 5% CO2. For IC50 value determination, serial dilutions of compounds were added to cells under the same conditions.
Assay: At the end of the incubation period, cell viability was determined using the CellTiter 96® Aqueous One Solution Cell Proliferation Assay according to manufacturer specifications (Promega, Madison, WI). The percentage of small molecules inhibition of cellular proliferation was calculated from raw data.
Cell lines: these Human tumor-derived cell lines were purchased from American Type Culture Collection. Human tumor-derived pancreatic cancer cell line MiaPaca-2 (expressing KRAS G12C mutant) and Panc-1 (expressing KRas G12D mutant), and Human non-small cell lung cancer (NSCLC) cell line A549 (expressing KRas G12S mutant), and Human melanoma cell line A375 (wild type Kras) were grown in complete DMEM-High Glucose medium. Human tumor-derived pancreatic cancer cell lines SU86.86 (expressing KRas G12D mutant), BxPC3 (expressing wild type K-Ras), and Human non-small cell lung cancer (NSCLC) cell lines NCI-H441 (expressing KRas G12S mutant), NCI-H1975 (expressing wild type KRas), NCI-H358 (expressing KRas G12C mutant), NCI-H1299 (expressing NRas Q61H mutant), and Human colon cancer cell line SW-620 (expressing KRas G12V mutant), Human triple negative breast cancer cell line HCC-1806 (expressing wild type KRas), and Human tumor-derived multiple myeloma cell line MM.1R (expressing wild type KRAS), were grown in RPMI 1640 medium. Human tumor-derived breast cancer cell line BT-549 (expressing wild type KRAS) was grown in RPMI 1640 medium in the presence of 11.8U insulin. Human tumor-derived pancreatic cancer cell line HPAF-II (expressing KRas G12D mutant), Human triple negative breast cancer cell line BT-20 (expressing wild type KRas), and Human colon cancer cell line LS123 (expressing KRas G12S mutant), were grown in EMEM medium. Human tumor-derived pancreatic cancer cell line CF-PAC1 (expressing KRas G12V mutant) was frown in IMDM medium, and Human colon cancer cell line HT29 (expressing wild type KRas) was grown in McCoy's 5A medium. The colon cancer cell line GP2d (expressing KRas G12D mutant) was purchased from MilliporeSigma and grown in DMEM-High Glucose medium. All cell lines were supplemented with penicillin (100 U/mL), streptomycin (100 μg/mL), and 10% heat-inactivated FBS at 37° C. in a humidified incubator with 5% CO2.
Method: Cells were plated at 2000 to 5000 cells/well density in 96-wells plate and cultured overnight. Small molecules that were tested were added to the cells in the final concentration of 10 μM in the presence of 0.3% DMSO and 10% FBS, and incubated for 2-4 days at 37° C. in a humidified incubator with 5% CO2. For IC50 value determination, serial dilutions of compounds were added to cells under the same conditions.

The mark [3] stands for this setting: read-out: Proliferation in MiaPaca-2: IC50.

Structures are written as SMILES. Like-named read-outs stand apart in the source and are kept apart here.

These results are taken from patent publication US12459951B2, “Compounds that interact with RAS superfamily proteins for treatment of cancers, inflammatory diseases, rasopathies, and fibrotic disease” (SHY Therapeutics, LLC, priority 2022, dated 2025).

`Cc1c(-c2ccn(C3CC3)n2)cn2nc(-c3nccn3C)nc(Nc3cc(OC(F)(F)F)ccn3)c12` [Compound 138, 6-(1-Cyclopropyl-1H-pyrazol-3-yl)-5-methyl-2-(1-methyl-1H-imidazol-2-yl)-N-(4-(trifluoromethoxy)pyridin-2-yl)pyrrolo[2,1-f][1,2,4]triazin-4-amine]: in assay [1], the “% inh of Smad2/3 phosphorylation in Panc-1” value (“% inh” below) is recorded as “A* (A* = 1-25% activation)”. In assay [2] (setting [3]), the IC50 was under 150 nM.
In the same order, the values of `Cc1c(-c2ccn(C3CC3)n2)cn2nc(-c3nccn3C)nc(Nc3cc(OCCCO)ccn3)c12` [Compound 149, 3-((2-((6-(1-Cyclopropyl-1H-pyrazol-3-yl)-5-methyl-2-(1-methyl-1H-imidazol-2-yl)pyrrolo[2,1-f][1,2,4]triazin-4-yl)amino)pyridin-4-yl)oxy)propan-1-ol] are “A (A = 1-25% inhibition)” and 510 to 1000 nM.
With `Cc1c(-c2ccn(C(C)C)n2)cn2nc(-c3nccn3C)nc(Nc3ncc[nH]3)c12` [Compound 125, N-(1H-Imidazol-2-yl)-6-(1-isopropyl-1H-pyrazol-3-yl)-5-methyl-2-(1-methyl-1H-imidazol-2-yl)pyrrolo[2,1-f][1,2,4]triazin-4-amine], in assay [1], the “% inh” value is given as “B (B = 26-45% inhibition)”. In assay [2] (setting [3]), the IC50 was 150 to 500 nM.
In the same order, the values of `Cc1c(-c2ccn(C3CC3)n2)cn2nc(-c3nccn3C)nc(Nc3cc(OCCCN(C)C)ccn3)c12` [Compound 148, 6-(1-Cyclopropyl-1H-pyrazol-3-yl)-N-(4-(3-(dimethylamino)propoxy)pyridin-2-yl)-5-methyl-2-(1-methyl-1H-imidazol-2-yl)pyrrolo[2,1-f][1,2,4]triazin-4-amine] are “A (A = 1-25% inhibition)” and over 1000 nM.
The matching figures for `Cc1c(-c2ccn(C)n2)cn2nc(-c3nccn3C)nc(Cl)c12` [Compound 99, 4-Chloro-5-methyl-2-(1-methyl-1H-imidazol-2-yl)-6-(1-methyl-1H-pyrazol-3-yl)pyrrolo[2,1-f][1,2,4]triazine]: “D (D = 76-100% inhibition)” and over 1000 nM.
In the same order, the values of `COc1cc(-c2cn3nc(-c4nccn4C)nc(N[C@H]4C[C@H](OC)C4)c3c2C)ccn1` [Compound 160, N-((1r,3r)-3-Methoxycyclobutyl)-6-(2-methoxypyridin-4-yl)-5-methyl-2-(1-methyl-1H-imidazol-2-yl)pyrrolo[2,1-f][1,2,4]triazin-4-amine] are “A* (A* = 1-25% activation)” and over 1000 nM.
As to `Cc1c(-c2cccnc2)cn2nc(-c3nccn3C)nc(Nc3ccncn3)c12` [Compound 156, 5-Methyl-2-(1-methyl-1H-imidazol-2-yl)-6-(pyridin-3-yl)-N-(pyrimidin-4-yl)pyrrolo[2,1-f][1,2,4]triazin-4-amine], the “% inh” value in assay [1] is “D (D = 76-100% inhibition)”. For the same compound, the IC50 in assay [2] (setting [3]) is under 150 nM.
As for `COc1cc(Nc2nc(-c3nccn3C)nn3cc(-c4ccn(C(C)C)n4)c(C)c23)ncn1` [Compound 6, 6-(1-Isopropyl-1H-pyrazol-3-yl)-N-(6-methoxypyrimidin-4-yl)-5-methyl-2-(1-methyl-1H-imidazol-2-yl)pyrrolo[2,1-f][1,2,4]triazin-4-amine], the “% inh” value in assay [1] is on record as 0 (0 = 0% inhibition). For the same compound, the IC50 in assay [2] (MiaPaca2, pancreatic, KRas G12C, read-out: Proliferation assay IC50) is under 150 nM; in assay [2] (Proliferation assay, MiaPaca-2, read-out: MiaPaca-2 IC50 (nM) Pancreatic), 10 to 50 nM; in assay [2] (setting [3]), 150 to 500 nM.
For the compound `CO[C@H]1C[C@@H](Nc2nc(-c3nccn3C)nn3cc(-c4cccnc4)c(C)c23)C1` [Compound 153, N-((1s,3s)-3-methoxy-cyclobutyl)-5-methyl-2-(1-methyl-1H-imidazol-2-yl)-6-(pyridin-3-yl)pyrrolo[2,1-f][1,2,4]triazin-4-amine], the “% inh” value in assay [1] is recorded as “C (C = 46-75% inhibition)”. Also, the IC50 in assay [2] (setting [3]) is over 1000 nM.
The matching figures for `Cc1c(-c2ccn(C)n2)cn2nc(-c3nccn3C)nc(Nc3ncccn3)c12.Cl` [Compound 115, 5-Methyl-2-(1-methyl-1H-imidazol-2-yl)-6-(1-methyl-1H-pyrazol-3-yl)-N-(pyrimidin-2-yl)pyrrolo[2,1-f][1,2,4]triazin-4-amine hydrochloride salt]: “A (A = 1-25% inhibition)” and under 150 nM.
The matching figures for `CCc1nc(Nc2nc(-c3nccn3C)nn3cc(-c4ccn(C)n4)c(C)c23)nn1C` [Compound 108, N-(5-Ethyl-1-methyl-1H-1,2,4-triazol-3-yl)-5-methyl-2-(1-methyl-1H-imidazol-2-yl)-6-(1-methyl-1H-pyrazol-3-yl)pyrrolo[2,1-f][1,2,4]triazin-4-amine]: “D* (D* = 76-100% activation)” and 510 to 1000 nM.
In the case of `Cc1c(-c2ccn(C)n2)cn2nc(-c3nccn3C)nc(Nc3cc(OC(C)C)ccn3)c12` [Compound 136, N-(4-Isopropoxypyridin-2-yl)-5-methyl-2-(1-methyl-1H-imidazol-2-yl)-6-(1-methyl-1H-pyrazol-3-yl)pyrrolo[2,1-f][1,2,4]triazin-4-amine], the “% inh” value in assay [1] is “A (A = 1-25% inhibition)”. The IC50 in assay [2] (setting [3]) is under 150 nM.
The matching figures for `COc1ccnc(Nc2nc(-c3nccn3C)nn3cc(-c4ccn(C5CC5)n4)c(C)c23)c1` [Compound 137, 6-(1-Cyclopropyl-1H-pyrazol-3-yl)-N-(4-methoxypyridin-2-yl)-5-methyl-2-(1-methyl-1H-imidazol-2-yl)pyrrolo[2,1-f][1,2,4]triazin-4-amine]: “C (C = 46-75% inhibition)” and under 150 nM.
